# Experiments:
# [1] = system: C57BI/6J mice; assay: Mouse food addiction operant protocol with prebiotics in drinking water; type: in vivo; settings: for mice that achieved the addiction criteria (2-3 criteria, considered addicted): 1% in drinking water during whole protocol, 120 sessions, late period (95-112 sessions), n=12 per group, 41.67% of control mice addicted, χ^2=8.57 control vs lactulose, χ^2=12 control vs rhamnose, P<0.01; for persistence of response: compared to control group
# Procedure: Mice were trained to obtain chocolate-flavored pellets (n=59) in operant boxes during 98 sessions in 1 h-daily self-administration sessions. The operant boxes and daily self-administration protocol of food addiction were accurately described in previous publications (Martín-García E, Domingo-Rodriguez L, Maldonado R. An Operant Conditioning Model Combined with a Chemogenetic Approach to Study the Neurobiology of Food Addiction in Mice. Bio-Protocol 2020;10:1-23. doi:10.21769/bioprotoc.3777; Domingo-Rodriguez L, Ruiz de Azua I, Dominguez E, et al. A specific prelimbic-nucleus accumbens pathway controls resilience versus vulnerability to food addiction. Nat Commun 2020;11:1-16. doi:10.1038/s41467-020-14458-y). Mice were under fixed-ratio 1 (FR1) during six sessions, followed by 92 sessions under FR5. The food addiction-like behavior was evaluated during this operant conditioning maintained by food at a late period (82-92 sessions) to classify mice into the addictive phenotype considering three food addiction-like criteria (1) persistence of response, (2) motivation, and (3) compulsivity. These criteria summarized the main features of the human food addiction diagnosis through the Yale Food Addiction Scale (YFAS 2.0) based on the 5th edition of the diagnostic and statistical manual of mental disorders (DSM-5) for substance use disorders. The three behavioral tests performed to evaluate these three addiction-like criteria (responding during the pellet-free period for the persistence of response, progressive ratio schedule for motivation, and shock-associated unconditioned stimulus for compulsivity) were performed as previously described (Mancino S, Burokas A, Gutiérrez-Cuesta J, et al. Epigenetic and Proteomic Expression Changes Promoted by Eating Addictive-Like Behavior. Neuropsychopharmacology 2015;40:2788-800. doi:10.1038/npp.2015.129). At the end of the late period, animals were categorized into two subpopulations, food-addicted or nonaddicted, depending on the number of addiction-like criteria achieved. Mice with two or three addiction-like criteria were considered addicted, and mice with 0 or 1 addiction-like criteria were considered nonaddicted.
# Additionally, four additional phenotypic traits were also evaluated as factors of vulnerability, impulsivity, cognitive inflexibility, appetitive and aversive cue-reactivity. • Impulsivity, the inability to stop a response once it is initiated, was measured as the number of non-reinforced active responses during the time-out period (10 s) after each pellet delivery. This impulsivity-like behavior was delimited to the three consecutive days before the progressive ratio. • Cognitive inflexibility is the incapacity to shift responding to stimuli that have previously predicted the availability of reward. […] In the next 30 min, the cue light associated with pellet delivery during a typical operant training session was illuminated with no contingent pellet reinforcement. To signal the change in the schedule, the cue light was presented twice non-contingently and for 4 s. • Aversive cue-reactivity: To study the conditioning to an aversive stimulus (grid floor), non-reinforced active responses during the following session after the shock test were measured. Mice were placed in the operant box for one hour with the same grid floor used during the shock test. However, during this session, pressing the active lever had no consequences: no shock, no chocolate-flavored pellets, and no cue light.
# Mice (n=36) were trained in the same experimental conditions previously described to obtain chocolate flavored pellets during 120 sessions of a 1h-daily self-administration protocol. The duration of training was enhanced in this experiment in order to allow a longer exposure to the prebiotics that could facilitate their effects to modify the behavioral responses. Mice were trained for six days at FR1, followed by 114 FR5 sessions. […]
# [2] = system: Blautia; settings: Reichardt et al. 2018 (rhamnose); Cui et al. 2021 (lactulose); cited from earlier work
# [3] = system: Blautia; assay: Quantitative PCR of Blautia in mouse feces after prebiotic treatment; type: in vivo; settings: 1% in drinking water, feces collected at end of protocol, qPCR, vs control
# Procedure: At the end of the protocol, feces were collected to quantify Blautia abundance in the gut by quantitative PCR. DNA was extracted from 0.18-0.2g of feces using QIAamp® Fast DNA Stool Mini kit (Qiagen, Germany) and was stored at -20°C.
# To quantify the Blautia in the feces, primers g-Blau-R (5'-[…]-3') SEQ ID No 3 and g-Blau-F (5'- […]- 3'), targeting SEQ ID No 4 16S rRNA gene, were used, as previously described. Each reaction mixture (10 µl) comprises LightCycler 480 SYBR Green I Master (Roche Life Science, Germany) and 1ng/µl of genomic DNA. The amplification program consisted of one cycle at 95°C for 10 min, followed by 40 cycles at 94°C for 20 s, 55°C for 20 s, and 60°C for 40 s. The fluorescent products were detected in the last step of each cycle. qPCR amplification and detection were performed in 384-well optical plates with an QuantStudio 12K Flex Real-Time PCR System (Applied Biosystems). A melting curve analysis was performed at the end of the experiment to determine the specificity of an assay. The melting program consisted of the first step of 95°C for 15 s, the second step of 60°C for 1 min, and the last dissociation step of 95°C for 15 s. […]
# A qPCR was performed to confirm the effectiveness of targeted prebiotics in increasing Blautia genus abundance in the gut. Based on the generated standard curve, the amount of Blautia per gram of feces was determined. […]
# [4] = 1% in drinking water, late period
SMILES,"mice that achieved the addiction criteria (2-3 criteria, considered addicted) [1]","persistence of response [1, 4]",amount of Blautia in mice feaces [2],Blautia abundance in the gut (amount of Blautia per gram of feces) [3],"cognitive inflexibility ([1]; 1% in drinking water, late period, compared to control (U=35.50, P<0.05) and lactulose (U=17.00, P<0.001))","compulsivity in seeking for palatable food ([1]; 1% in drinking water, late period, compared to control mice, Mann-Whitney's U=31.50, P<0.01)","motivation for chocolate-flavored pellets ([1]; 1% in drinking water, late period, rhamnose compared to lactulose, Mann-Whitney's U=31.50, P<0.05)"
"OC[C@H]1O[C@@H](O[C@@H]2[C@@H](CO)OC(O)(CO)[C@H]2O)[C@H](O)[C@@H](O)[C@H]1O (stereo partly drawn) [lactulose, 4-O-β-D-galactopyranosyl-D-fructofuranose, reference compound]",none,similar,increases,non-significant trend to enhance,–,–,–
"C[C@@H]1OC(O)[C@H](O)[C@H](O)[C@H]1O (stereo partly drawn) [rhamnose, (3R,4R,5R,6S)-6-methyloxane-2,3,4,5-tetrol]",none,similar,increases,significantly increased,lower,decreased,reduced

# — EP4559466A1, “MICROBIOTA SIGNATURE TO DETECT FOOD ADDICTION AND TREATMENT THEREOF” (Universitat Pompeu Fabra (UPF), priority 2023, dated 2025)
